According to PMC10877733, “Discovery and Characterization of VU0542270, the First Selective Inhibitor of Vascular Kir6.1/SUR2B KATP Channels” (Molecular Pharmacology, 2024):

How the values were obtained:
[1] = tested on: channels containing SUR1; assay: Thallium flux, Kir6.1 or Kir6.2 co-expressed with SUR1 in transfected HEK-293 cells; assay type: cell-based; conditions: 3 µM, Fig. 4D
Description: The pcDNA3.1-SUR2B plasmid was generously provided by Dr. Colin Nichols (Washington University). The pcDNA5/TO-Kir6.1 plasmid was synthesized by GenScript. Stably transfected tetracycline-regulated expression human embryonic kidney-293 (T-Rex-HEK293) cells expressing both plasmids were generated by cotransfecting cells with Lipofectamine LTX followed by antibiotic selection and clonal selection using the thallium flux assay described below. Monoclonal lines expressing robust pinacidil-activated thallium flux were selected for high KATP channel activity. T-Rex-HEK293 cells expressing Kir6.2/SUR1 were created as described previously ([Raphemot et al., 2014]). The cell culture media contained Dulbecco’s modified Eagle’s medium (Gibco, 11965-092) supplied with heat-inactivated FBS (bio-techne, Minneapolis, MN S11150H,10%), Blasticidine HCl (Gibco, A11139-03, 10 ug/mL), Penicillin-Streptomycin (Gibco, 15140-122, 2 mM), G418 Sulfate (CORNING, Corning, NY, 30-234-CR, 1 mg/mL), and Hygromycin B (Invitrogen, Carlsbad, CA, 10687-010, 250 ug/mL). […]
Quantitative thallium flux assays of Kir6.1/SUR2B activity were performed essentially as described previously for Kir6.2/SUR1 ([Raphemot et al., 2014]; [Kharade et al., 2019]). […] Dye-loaded cells were washed with assay buffer and transferred to a Panoptic Kinetic Imaging Plate Reader (Wavefront Bioscience, Franklin, TN). […]

[2] = Intrinsic clearance in liver microsomes, rat; assay type: in vitro ADME
Method: The in vitro intrinsic clearance (CLint) of VU0542270 was investigated in commercially obtained hepatic microsomes from rat, mouse, and human donors using the substrate depletion (i.e., loss-of-parent versus time, or t1/2 method) approach with analyte detection via LC-MS/MS. For each species, mean per cent parent remaining values at each time point were calculated from replicates raw data (analyte:IS peak area ratios) and used to determine in vitro t1/2 and CLint.
Experiments were carried out using a robot-assisted liquid handling system (TECAN model Evo 200). VU0542270 was incubated (1 µM final concentration) in buffer (100 mM potassium phosphate, pH 7.4, with 3 mM MgCl2) containing hepatic microsomes (0.5 mg/mL final concentration) from multiple species, discretely, at 37°C under constant orbital shaking. After 5 minutes (preincubation), reactions were initiated by the addition of NADPH (1 mM final concentration). At selected time intervals (0, 3, 7, 15, 25, and 45 minutes) post addition of NADPH, aliquots (50 µL) were taken and placed into a 96-shallow-well plate containing ice-cold acetonitrile (150 µL) with carbamazepine (IS, 50 nM). The plates were then centrifuged (3000 rcf at 4°C) for 10 minutes. […]
Predicted hepatic clearance (CLhep) was calculated using the following equation: [drawing 4] […]

Predicted CLhep,u (rat) ([2]; corrected to plasma unbound fraction): 6.0 mL/min per kg
Predicted CLhep (rat) ([2]; from microsomal CLint): 63 mL/min per kg
SMILES: Cc1nc(-c2cccs2)sc1CNC(=O)Nc1cccs1 [VU0542270]
inhibition of channels containing SUR1 [1]: not channels containing SUR1
